Assay results as given in ChEMBL document CHEMBL2203009, “Synthesis of isoindole and benzoisoindole derivatives of teicoplanin pseudoaglycon with remarkable antibacterial and antiviral activities” (Bioorg Med Chem Lett, 2012).
In brackets after ≈: the same amount, converted by molar mass.

Legend:
[1] = Toxicity in HEL cells assessed as induction of cell morphology changes; type: cell-based; conditions: human
Human alphaherpesvirus 1 [2] = assay: Antiviral activity against thymidine kinase deficient and acyclovir-resistant HSV1 KOS infected in HEL cells assessed as inhibition of virus-induced cytopathic effect; type: functional, organism-based; conditions: Human alphaherpesvirus 1, KOS
[3] = system: Vesicular stomatitis virus; assay: Antiviral activity against Vesicular stomatitis virus infected in HEL cells assessed as inhibition of virus-induced cytopathic effect; type: functional, organism-based
Vaccinia virus = assay: Antiviral activity against Vaccinia virus infected in HEL cells assessed as inhibition of virus-induced cytopathic effect; type: functional, organism-based; conditions: Orthopoxvirus vaccinia
Human alphaherpesvirus 2 = assay: Antiviral activity against HSV2 G infected in HEL cells assessed as inhibition of virus-induced cytopathic effect; type: functional, organism-based; conditions: Human alphaherpesvirus 2, strain G
Human alphaherpesvirus 1 [4] = assay: Antiviral activity against HSV1 KOS infected in HEL cells assessed as inhibition of virus-induced cytopathic effect; type: functional, organism-based; conditions: Human alphaherpesvirus 1, KOS
[5] = Toxicity in MDCK cells assessed as induction of cell morphology changes; type: cell-based, Canis lupus familiaris; conditions: dog
Influenza B virus = assay: Antiviral activity against Influenza B virus (B/Hong Kong/05/1972) […] infected in MDCK cells assessed as inhibition of virus-induced cytopathic effect; type: functional, cell-based; conditions: B/Hong Kong/05/1972, MDCK
H3N2 subtype = assay: Antiviral activity against Influenza A virus (A/Hong Kong/7/1987(H3N2)) […] infected in MDCK cells assessed as inhibition of virus-induced cytopathic effect; type: functional, organism-based
Influenza A virus = assay: Antiviral activity against Influenza A virus (A/Puerto Rico/8/1934(H1N1)) H1N1 infected in MDCK cells assessed as inhibition of virus-induced cytopathic effect; type: functional, organism-based
Enterococcus faecalis [6] = assay: Antimicrobial activity against Enterococcus faecalis 15376 over-expressing vanA; type: functional
Enterococcus faecalis [7] = assay: Antimicrobial activity against Enterococcus faecalis ATCC 51299 over-expressing vanB; type: functional
[8] = system: Staphylococcus epidermidis; assay: Antimicrobial activity against Staphylococcus epidermidis over-expressing MecA; type: functional
Enterococcus faecalis [9] = assay: Antimicrobial activity against Enterococcus faecalis ATCC 29212; type: functional
[10] = system: Staphylococcus epidermidis; assay: Antimicrobial activity against Staphylococcus epidermidis ATCC 35984 biofilms; type: functional
Staphylococcus aureus [11] = assay: Antimicrobial activity against methicillin-resistant Staphylococcus aureus ATCC 33591; type: functional
Bacillus subtilis = assay: Antimicrobial activity against Bacillus subtilis ATCC 6633; type: functional
Staphylococcus aureus [12] = assay: Antimicrobial activity against methicillin-sensitive Staphylococcus aureus ATCC 29213; type: functional

| SMILES | MCC [1] | EC50 (Human alphaherpesvirus 1 [2]) | EC50 [3] | EC50 (Vaccinia virus) | EC50 (Human alphaherpesvirus 2) | EC50 (Human alphaherpesvirus 1 [4]) | MCC [5] | EC50 (Influenza B virus) | EC50 (H3N2 subtype) | EC50 (Influenza A virus) | MBC (Enterococcus faecalis [6]) | MIC (Enterococcus faecalis [6]) | MBC (Enterococcus faecalis [7]) | MIC (Enterococcus faecalis [7]) | MBC [8] | MIC [8] | MBC (Enterococcus faecalis [9]) | MIC (Enterococcus faecalis [9]) | MBC [10] | MIC [10] | other results |
| --- | --- | --- | --- | --- | --- | --- | --- | --- | --- | --- | --- | --- | --- | --- | --- | --- | --- | --- | --- | --- | --- |
| CC(=O)N[C@H]1[C@H](O[C@@H]2c3ccc(c(Cl)c3)Oc3cc4cc(c3O)Oc3ccc(cc3Cl)C[C@H]3NC(=O)[C@H](n5cc6ccccc6c5Sc5nc6ccccc6s5)c5ccc(O)c(c5)Oc5cc(O)cc(c5)[C@H](NC3=O)C(=O)N[C@H]4C(=O)N[C@H]3C(=O)N[C@@H]2C(=O)N[C@H](C(=O)O)c2cc(O)cc(O)c2-c2cc3ccc2O)O[C@H](CO)[C@@H](O)[C@@H]1O | ≥ 100 µM | 45 µM | > 100 µM | 47 µM | 45 µM | 45 µM | 4 µM | > 100 µM | > 100 µM | > 100 µM | 256 µg/mL (≈ 154 µM) | 0.0313 µg/mL (≈ 0.0188 µM) | 256 µg/mL (≈ 154 µM) | 0.0625 µg/mL (≈ 0.0375 µM) | 256 µg/mL (≈ 154 µM) | 4 µg/mL (≈ 2.4 µM) | 256 µg/mL (≈ 154 µM) | 2 µg/mL (≈ 1.2 µM) | 0.5 µg/mL (≈ 0.3 µM) | 0.0075 µg/mL (≈ 0.0045 µM) | MBC (Staphylococcus aureus [11]): 0.5 µg/mL (≈ 0.3 µM); MIC (Staphylococcus aureus [11]): 0.0075 µg/mL (≈ 0.0045 µM); MBC (Bacillus subtilis): 2 µg/mL (≈ 1.2 µM); MIC (Bacillus subtilis): 1 µg/mL (≈ 0.6 µM); MBC (Staphylococcus aureus [12]): 0.5 µg/mL (≈ 0.3 µM); MIC (Staphylococcus aureus [12]): 0.0075 µg/mL (≈ 0.0045 µM) |
| CC(=O)N[C@@H]1[C@@H](O)[C@H](O)[C@@H](CO)O[C@H]1Sc1c2ccccc2cn1[C@H]1C(=O)N[C@@H]2Cc3ccc(c(Cl)c3)Oc3cc4cc(c3O)Oc3ccc(cc3Cl)[C@@H](O[C@@H]3O[C@H](CO)[C@@H](O)[C@H](O)[C@H]3NC(C)=O)[C@@H]3NC(=O)[C@H](NC(=O)[C@@H]4NC(=O)[C@@H](NC2=O)c2cc(O)cc(c2)Oc2cc1ccc2O)c1ccc(O)c(c1)-c1c(O)cc(O)cc1[C@@H](C(=O)O)NC3=O | ≥ 100 µM | 45 µM | 52 µM | 47 µM | 45 µM | 47 µM | < 0.8 µM | > 100 µM | > 100 µM | > 100 µM | 256 µg/mL (≈ 147 µM) | 1 µg/mL (≈ 0.576 µM) | 256 µg/mL (≈ 147 µM) | 4 µg/mL (≈ 2.3 µM) | 64 µg/mL (≈ 36.8 µM) | 0.0075 µg/mL (≈ 0.00432 µM) | 256 µg/mL (≈ 147 µM) | 1 µg/mL (≈ 0.576 µM) | 0.5 µg/mL (≈ 0.288 µM) | 0.0313 µg/mL (≈ 0.018 µM) | MBC (Staphylococcus aureus [11]): 1 µg/mL (≈ 0.576 µM); MIC (Staphylococcus aureus [11]): 1 µg/mL (≈ 0.576 µM); MBC (Bacillus subtilis): 1 µg/mL (≈ 0.576 µM); MIC (Bacillus subtilis): 0.125 µg/mL (≈ 0.0719 µM); MBC (Staphylococcus aureus [12]): 1 µg/mL (≈ 0.576 µM); MIC (Staphylococcus aureus [12]): 0.5 µg/mL (≈ 0.288 µM) |
| CC(=O)N[C@H]1[C@H](O[C@@H]2c3ccc(c(Cl)c3)Oc3cc4cc(c3O)Oc3ccc(cc3Cl)C[C@H]3NC(=O)[C@H](n5cc6cc7ccccc7cc6c5Sc5nc6ccccc6s5)c5ccc(O)c(c5)Oc5cc(O)cc(c5)[C@H](NC3=O)C(=O)N[C@H]4C(=O)N[C@H]3C(=O)N[C@@H]2C(=O)N[C@H](C(=O)O)c2cc(O)cc(O)c2-c2cc3ccc2O)O[C@H](CO)[C@@H](O)[C@@H]1O | > 100 µM | > 100 µM | > 100 µM | > 100 µM | > 100 µM | > 100 µM | 20 µM | > 100 µM | 1.6 µM | < 4.9 µM | 32 µg/mL (≈ 18.6 µM) | 0.0313 µg/mL (≈ 0.0182 µM) | 256 µg/mL (≈ 149 µM) | 1 µg/mL (≈ 0.582 µM) | 256 µg/mL (≈ 149 µM) | 0.0313 µg/mL (≈ 0.0182 µM) | 256 µg/mL (≈ 149 µM) | 0.0313 µg/mL (≈ 0.0182 µM) | 0.5 µg/mL (≈ 0.291 µM) | 0.015 µg/mL (≈ 0.00873 µM) | MBC (Staphylococcus aureus [11]): 4 µg/mL (≈ 2.33 µM); MIC (Staphylococcus aureus [11]): 0.015 µg/mL (≈ 0.00873 µM); MBC (Bacillus subtilis): 4 µg/mL (≈ 2.33 µM); MIC (Bacillus subtilis): 0.0313 µg/mL (≈ 0.0182 µM); MBC (Staphylococcus aureus [12]): 0.5 µg/mL (≈ 0.291 µM); MIC (Staphylococcus aureus [12]): 0.015 µg/mL (≈ 0.00873 µM) |
| CC(=O)N[C@H]1[C@H](O[C@@H]2c3ccc(c(Cl)c3)Oc3cc4cc(c3O)Oc3ccc(cc3Cl)C[C@H]3NC(=O)[C@H](n5cc6ccccc6c5Sc5ccccc5)c5ccc(O)c(c5)Oc5cc(O)cc(c5)[C@H](NC3=O)C(=O)N[C@H]4C(=O)N[C@H]3C(=O)N[C@@H]2C(=O)N[C@H](C(=O)O)c2cc(O)cc(O)c2-c2cc3ccc2O)O[C@H](CO)[C@@H](O)[C@@H]1O | ≥ 20 µM | ≥ 20 µM | > 20 µM | > 20 µM | 9 µM | 9 µM | 4 µM | > 100 µM | > 100 µM | > 100 µM | 32 µg/mL (≈ 19.9 µM) | 2 µg/mL (≈ 1.24 µM) | 256 µg/mL (≈ 159 µM) | 2 µg/mL (≈ 1.24 µM) | 32 µg/mL (≈ 19.9 µM) | 2 µg/mL (≈ 1.24 µM) | 256 µg/mL (≈ 159 µM) | 0.0075 µg/mL (≈ 0.00466 µM) | 0.5 µg/mL (≈ 0.31 µM) | 0.0165 µg/mL (≈ 0.0102 µM) | MBC (Staphylococcus aureus [11]): 2 µg/mL (≈ 1.24 µM); MIC (Staphylococcus aureus [11]): 0.0625 µg/mL (≈ 0.0388 µM); MBC (Bacillus subtilis): 1 µg/mL (≈ 0.621 µM); MIC (Bacillus subtilis): 1 µg/mL (≈ 0.621 µM); MBC (Staphylococcus aureus [12]): 128 µg/mL (≈ 79.5 µM); MIC (Staphylococcus aureus [12]): 0.125 µg/mL (≈ 0.0776 µM) |
| CC(=O)N[C@H]1[C@H](O[C@@H]2c3ccc(c(Cl)c3)Oc3cc4cc(c3O)Oc3ccc(cc3Cl)C[C@H]3NC(=O)[C@H](n5cc6cc7ccccc7cc6c5Sc5ncccn5)c5ccc(O)c(c5)Oc5cc(O)cc(c5)[C@H](NC3=O)C(=O)N[C@H]4C(=O)N[C@H]3C(=O)N[C@@H]2C(=O)N[C@H](C(=O)O)c2cc(O)cc(O)c2-c2cc3ccc2O)O[C@H](CO)[C@@H](O)[C@@H]1O | ≥ 100 µM | 45 µM | > 100 µM | 10 µM | 27 µM | 40 µM | 13 µM | > 50 µM | 0.54 µM | 0.54 µM | 256 µg/mL (≈ 154 µM) | 0.5 µg/mL (≈ 0.301 µM) | 256 µg/mL (≈ 154 µM) | 1 µg/mL (≈ 0.602 µM) | 256 µg/mL (≈ 154 µM) | 0.015 µg/mL (≈ 0.00902 µM) | 256 µg/mL (≈ 154 µM) | 0.015 µg/mL (≈ 0.00902 µM) | 0.5 µg/mL (≈ 0.301 µM) | 0.015 µg/mL (≈ 0.00902 µM) | MBC (Staphylococcus aureus [11]): 0.5 µg/mL (≈ 0.301 µM); MIC (Staphylococcus aureus [11]): 0.015 µg/mL (≈ 0.00902 µM); MBC (Bacillus subtilis): 2 µg/mL (≈ 1.2 µM); MIC (Bacillus subtilis): 0.0313 µg/mL (≈ 0.0188 µM); MBC (Staphylococcus aureus [12]): 0.5 µg/mL (≈ 0.301 µM); MIC (Staphylococcus aureus [12]): 0.015 µg/mL (≈ 0.00902 µM) |
